Assay results: ChEMBL document CHEMBL3046497, “Synthesis and antitubercular activity of novel pyrazolequinazolinone hybrid analogs” (2013)
Converted amounts (≈) assume the structure as drawn.

What was measured:
Assay type in all cases: functional
[1] = test system: Mycobacterium tuberculosis; experiment: Antitubercular activity against Mycobacterium tuberculosis H37Rv assessed as growth inhibition by primary screen assay
[2] = test system: Mycobacterium tuberculosis; experiment: Antitubercular activity against Mycobacterium tuberculosis H37Rv assessed as growth inhibition at >6.25 ug/ml by primary screen assay
[3] = test system: Mycobacterium tuberculosis; experiment: Antitubercular activity against Mycobacterium tuberculosis H37Rv assessed as growth inhibition by secondary screen assay
[4] = test system: Mycobacterium tuberculosis; experiment: Antitubercular activity against Mycobacterium tuberculosis H37Rv assessed as growth inhibition at <6.25 ug/ml by primary screen assay

Row | Structure (SMILES) | MIC [1] | inhibition (INH) [2] | MIC [3] | inhibition (INH) [4]
1 | Cc1ccc(-n2cc(/C=N/n3c(-c4ccccc4[N+](=O)[O-])nc4ccccc4c3=O)c(-c3ccncc3)n2)cc1 | > 6.25 µg/mL | 73% | – | –
2 | Cc1ccc(-n2cc(/C=N/n3c(-c4cccc([N+](=O)[O-])c4)nc4ccccc4c3=O)c(-c3ccncc3)n2)cc1 | < 6.25 µg/mL | – | < 3.12 µg/mL | 92%
3 | NNC(=O)c1ccncc1 [ISONIAZID] | < 6.25 µg/mL | – | 0.125 µg/mL (≈ 0.911 µM) | –
4 | COc1cccc(-c2nc3ccccc3c(=O)n2/N=C/c2cn(-c3ccc(C)cc3)nc2-c2ccncc2)c1 | > 6.25 µg/mL | 64% | – | –
5 | COc1ccc(-c2nc3ccccc3c(=O)n2/N=C/c2cn(-c3ccc(C)cc3)nc2-c2ccncc2)cc1 | > 6.25 µg/mL | 59% | – | –
6 | COc1ccccc1-c1nc2ccccc2c(=O)n1/N=C/c1cn(-c2ccc(C)cc2)nc1-c1ccncc1 | < 6.25 µg/mL | – | < 3.12 µg/mL | 93%
7 | Cc1ccc(-n2cc(/C=N/n3c(-c4ccc(Cl)cc4)nc4ccccc4c3=O)c(-c3ccncc3)n2)cc1 | < 6.25 µg/mL | – | < 3.12 µg/mL | 90%
8 | Cc1ccc(-n2cc(/C=N/n3c(-c4cccc(Cl)c4)nc4ccccc4c3=O)c(-c3ccncc3)n2)cc1 | > 6.25 µg/mL | 68% | – | –
9 | Cc1ccc(-n2cc(/C=N/n3c(-c4ccccc4C)nc4ccccc4c3=O)c(-c3ccncc3)n2)cc1 | < 6.25 µg/mL | – | < 3.12 µg/mL | 94%
10 | Cc1ccc(-n2cc(/C=N/n3c(-c4ccccc4Cl)nc4ccccc4c3=O)c(-c3ccncc3)n2)cc1 | < 6.25 µg/mL | – | < 3.12 µg/mL | 96%
11 | Cc1ccc(-c2nc3ccccc3c(=O)n2/N=C/c2cn(-c3ccc(C)cc3)nc2-c2ccncc2)cc1 | > 6.25 µg/mL | 67% | – | –
12 | Cc1ccc(-n2cc(/C=N/n3c(-c4cccc(C)c4)nc4ccccc4c3=O)c(-c3ccncc3)n2)cc1 | > 6.25 µg/mL | 70% | – | –
13 | Cc1ccc(-n2cc(/C=N/n3c(-c4ccc([N+](=O)[O-])cc4)nc4ccccc4c3=O)c(-c3ccncc3)n2)cc1 | > 6.25 µg/mL | 67% | – | –
